What follows are molecules tested against T1, KRAS G12C 1-169, his-tagged protein, GDP-loaded (Homo sapiens, UniProt P01116, G12C) (assay: KRAS G12C covalent binding (% modification) by mass spectrometry, ten or three minute incubation). Conditions: covalent binding to KRAS G12C after a ten minute incubation period.
T1 construct: KRAS G12C 1-169, his-tagged protein, GDP-loaded
Description: Test compounds were prepared as 10 mM stock solutions in DMSO (Fisher cat #BP-231-100). KRAS G12C 1-169, his-tagged protein, GDP-loaded was diluted to […] in buffer (20 mM Hepes, 150 mM NaCl, 1 mM MgCl2). Compounds were tested for activity as follows:
Compounds were diluted to 50× final test concentration in DMSO in 96-well storage plates. Compound stock solutions were vortexed before use and observed carefully for any sign of precipitation. Dilutions were as follow: • For 100 μM final compound concentration, compounds were diluted to 5000 μM (5 μl 10 mM compound stock+5 μl DMSO and mixed well by pipetting. • For 30 μM final compound concentration, compounds were diluted to 1500 μM (3 μl 10 mM compound stock+17 μl DMSO) and mixed well by pipetting. • For 10 μM final compound concentration, compounds were diluted to 500 μM (2 μl 10 mM compound stock+38 μl DMSO) and mixed well by pipetting. 49 μl of the stock protein solution was added to each well of a 96-well PCR plate (Fisher cat #1423027). 1 μl of the diluted 50× compounds were added to appropriate wells in the PCR plate using 12-channel pipettor. Reactions were mixed carefully and thoroughly by pipetting up/down with a 200 μl multi-channel pipettor. […] 5 μl of 2% formic acid (Fisher cat #A117) in DI H2O was then added to each well followed by mixing with a pipette. The plate was then resealed with aluminum seal and stored on dry ice until analyzed as described below.
The above described assays were analyzed by mass spectrometry according to one of the following two procedures:
The MS instrument is set to positive polarity, 2 GHz resolution, and low mass (1700) mode and allowed to equilibrate for 30 minutes. The instrument is then calibrated, switched to acquisition mode and the appropriate method loaded.
After another 30 minute equilibration time, a blank batch (i.e., buffer) is run to ensure equipment is operating properly. The samples are thawed at 37° C. for 10 minutes, briefly centrifuged, and transfer to the bench top. Wells A1 and H12 are spiked with 1 μL 500 μM internal standard peptide, and the plates centrifuged at 2000×g for 5 minutes. The method is then run and masses of each individual well recorded.
The masses (for which integration data is desired) for each well are pasted into the platemap and exported from the analysis. Masses for the internal standards are exported as well. The data at 50 ppm is extracted for the +19 charge state, and identity of well A1 is assigned using the internal standard spike and integrated. Peak data is exported as a TOF list and the above steps are repeated individually, for the +20, 21, 22, 23, 24, and 25 charge states.
The masses and peak intensities of KRAS G12C protein species were measured using a Dionex RSLCnano system (Thermo Scientific) connected to a Q Exactive Plus mass spectrometer (Thermo Scientific).
[…] of sample was each loaded onto a Aeris™ 3.6 μm WIDEPORE C4 200 Å, LC Column 50×2.1 mm column maintained at 40° C. at a flow rate of 600 μl min^−1 with […] (0.1% formic acid in acetonitrile). The liquid chromatography conditions were 20% solvent B for 1 min, 20% to 60% solvent B for 1.5 min, 60% to 90% solvent for 0.5 min, 90% solvent B for 0.2 min, 90% to 20% solvent B for 0.2 min, and then equilibrated for 1.6 min before the following sample injection. The flow rate was maintained at 600 μl min^−1 throughout the sample analysis.
The mass spectrometer was operated in profile mode at a resolution of 17500, 5 microscans, using 50 msec max injection time and an AGC target of 1e6, and a full mass range from 800-1850 m/z was recorded. The HCD trapping gas was optimized for maximum sensitivity for intact proteins. The ionization method was electrospray ionization, which used a spray voltage of 4 kV, sheath gas flow set to 50 au, auxiliary gas flow set to 10 au and sweep gas flow set to 1 au. […]
For C=CC(=O)N1C[C@H](C)N(c2nc(N3CC(N(C)C)C3)nc3c(F)c(-c4c(C)ccc5cn[nH]c45)c(Cl)cc23)C[C@H]1C (atropisomer, axis not shown) [Compound 73, 1-((2R,5S)-4-((S)-6-chloro-2-(3-(dimethylamino)azetidin-1-yl)-8-fluoro-7-(6-methyl-1H-indazol-7-yl)quinazolin-4-yl)-2,5-dimethylpiperazin-1-yl)prop-2-en-1-one], the Binding % was “++ (++ indicates binding activity from 50 to 90%)”. In the case of C=CC(=O)N1CCN(c2nc(N3CC(N(C)C)C3)nc3c(F)c(-c4c(O)cccc4F)c(Cl)cc23)C[C@@H]1C [Compound 82, 1-((2S)-4-(6-chloro-2-(3-(dimethylamino)azetidin-1-yl)-8-fluoro-7-(2-fluoro-6-hydroxyphenyl)quinazolin-4-yl)-2-methylpiperazin-1-yl)prop-2-en-1-one], the Binding % is reported as “++ (++ indicates binding activity from 50 to 90%)”. In the case of C=CC(=O)N1C[C@H](C)N(c2nc(N3CC(N(C)C)C3)nc3c(F)c(-c4c(C)ccc5[nH]ncc45)c(Cl)cc23)C[C@H]1C [Compound 54, 1-((2R,5S)-4-(6-chloro-2-(3-(dimethylamino)azetidin-1-yl)-8-fluoro-7-(5-methyl-1H-indazol-4-yl)quinazolin-4-yl)-2,5-dimethylpiperazin-1-yl)prop-2-en-1-one], the Binding % is reported as “+++ (+++ indicates binding activity greater than 90%)”. For C=CC(=O)N1C[C@H](C)N(c2nc(OCCN3CC(F)(F)C3)nc3c(F)c(-c4c(O)cccc4F)c(Cl)cc23)C[C@H]1C (atropisomer, axis not shown) [Compound 84, 1-((2R,5S)-4-((S)-6-chloro-2-(2-(3,3-difluoroazetidin-1-yl)ethoxy)-8-fluoro-7-(2-fluoro-6-hydroxyphenyl)quinazolin-4-yl)-2,5-dimethylpiperazin-1-yl)prop-2-en-1-one], the Binding % was “+++ (+++ indicates binding activity greater than 90%)”.

Same assay, conditions: covalent binding to KRAS G12C, % modification after a three minute incubation period
For C=CC(=O)N1C[C@H](C)N(c2nc(OCCN3CC(F)(F)C3)nc3c(F)c(-c4c(O)cccc4F)c(Cl)cc23)C[C@H]1C (atropisomer, axis not shown) [Compound 90, 1-((2R,5S)-4-(6-chloro-2-(2-(3,3-difluoroazetidin-1-yl)ethoxy)-8-fluoro-7-((S)-2-fluoro-6-hydroxyphenyl)quinazolin-4-yl)-2,5-dimethylpiperazin-1-yl)prop-2-en-1-one], the Binding % was “++ (++ indicates binding activity from 50 to 90%)”. For C=CC(=O)N1CCN(c2nc(N3CC(N(C)C)C3)nc3c(F)c(-c4c(O)cccc4F)c(C(F)(F)F)cc23)C[C@H]1C (atropisomer, axis not shown) [Compound 271, 1-((R)-4-(2-(3-(dimethylamino)azetidin-1-yl)-8-fluoro-7-((S)-2-fluoro-6-hydroxyphenyl)-6-(trifluoromethyl)quinazolin-4-yl)-2-methylpiperazin-1-yl)prop-2-en-1-one], the Binding % was “+ (+ indicates binding activity greater than 0% and up to 50%)”. With C=CC(=O)N1C[C@H](C)N(c2nc(OCCc3nccn3C)nc3c(F)c(-c4c(C)ccc5[nH]ncc45)c(Cl)cc23)C[C@H]1C [Compound 293, 1-((2R,5S)-4-(6-chloro-8-fluoro-2-(2-(1-methyl-1H-imidazol-2-yl)ethoxy)-7-(5-methyl-1H-indazol-4-yl)quinazolin-4-yl)-2,5-dimethylpiperazin-1-yl)prop-2-en-1-one] the Binding % was “++ (++ indicates binding activity from 50 to 90%)”. C=CC(=O)N1C[C@H](C)N(c2nc(OCCn3ccccc3=O)nc3c(F)c(-c4c(O)cccc4F)c(Cl)cc23)C[C@H]1C (atropisomer, axis not shown) [Compound 265, 1-(2-(4-((2S,5R)-4-acryloyl-2,5-dimethylpiperazin-1-yl)-6-chloro-8-fluoro-7-((S)-2-fluoro-6-hydroxyphenyl)quinazolin-2-yloxy)ethyl)pyridin-2(1H)-one] was tested, and the Binding % was “+++ (+++ indicates binding activity greater than 90%)”. For C=CC(=O)N1C[C@H](C)N(c2nc(OCCCN3CC(F)(F)C3)nc3c(F)c(-c4c(O)cccc4F)c(Cl)cc23)C[C@H]1C [Compound 250, 1-((2R,5S)-4-(6-chloro-2-(3-(3,3-difluoroazetidin-1-yl)propoxy)-8-fluoro-7-(2-fluoro-6-hydroxyphenyl)quinazolin-4-yl)-2,5-dimethylpiperazin-1-yl)prop-2-en-1-one], the Binding % was “+++ (+++ indicates binding activity greater than 90%)”. C=CC(=O)N1C[C@H](C)N(c2nc(N3CC(N(C)C)C3)nc3c(F)c(-c4c[nH]c5ncccc45)c(Cl)cc23)C[C@H]1C [Compound 300, 1-((2R,5S)-4-(6-chloro-2-(3-(dimethylamino)azetidin-1-yl)-8-fluoro-7-(1H-pyrrolo[2,3-b]pyridin-3-yl)quinazolin-4-yl)-2.5-dimethylpiperazin-1-yl)prop-2-en-1-one] was tested, and the Binding % was “+ (+ indicates binding activity greater than 0% and up to 50%)”. For [2H]C([2H])([2H])N(C1CN(c2nc(N3C[C@@H](C)N(C(=O)C=C)C[C@@H]3C)c3cc(Cl)c(-c4c(O)cccc4F)c(F)c3n2)C1)C([2H])([2H])[2H] (atropisomer, axis not shown) [Compound 207, 1-((2R,5S)-4-(2-(3-(bis(tridueteromethyl)amino)azetidin-1-yl)-6-chloro-8-fluoro-7-((S)-2-fluoro-6-hydroxyphenyl)quinazolin-4-yl)-2,5-dimethylpiperazin-1-yl)prop-2-en-1-one], the Binding % was “+++ (+++ indicates binding activity greater than 90%)”. For C=CC(=O)N1C[C@H](C)N(c2nc(N3CC(N(C)C)C3)nc3c(Cl)c(-c4c(O)cccc4F)c(Cl)cc23)C[C@H]1C [Compound 251, 1-((2R,5S)-4-(6,8-dichloro-2-(3-(dimethylamino)azetidin-1-yl)-7-(2-fluoro-6-hydroxyphenyl)quinazolin-4-yl)-2,5-dimethylpiperazin-1-yl)prop-2-en-1-one], the Binding % was “++ (++ indicates binding activity from 50 to 90%)”. For C=CC(=O)N1C[C@H](C)N(c2nc(OCCc3ncc(N(C)C)cn3)nc3c(F)c(-c4c(O)cccc4F)c(Cl)cc23)C[C@H]1C (atropisomer, axis not shown) [Compound 258, 1-((2R,5S)-4-(6-chloro-2-(2-(5-(dimethylamino)pyrimidin-2-yl)ethoxy)-8-fluoro-7-((S)-2-fluoro-6-hydroxyphenyl)quinazolin-4-yl)-2,5-dimethylpiperazin-1-yl)prop-2-en-1-one], the Binding % was “+++ (+++ indicates binding activity greater than 90%)”. In the case of C=CC(=O)N1C[C@H](C)N(c2nc(OCCc3nccc(C)n3)nc3c(F)c(-c4c(O)cccc4F)c(Cl)cc23)C[C@H]1C (atropisomer, axis not shown) [Compound 257, 1-((2R,5S)-4-(6-chloro-8-fluoro-7-((S)-2-fluoro-6-hydroxyphenyl)-2-(2-(4-methylpyrimidin-2-yl)ethoxy)quinazolin-4-yl)-2,5-dimethylpiperazin-1-yl)prop-2-en-1-one], the Binding % is reported as “+++ (+++ indicates binding activity greater than 90%)”. In the case of C=CC(=O)N1C[C@H](C)N(c2nc(N3CC(N(C)C)C3)nc3c(F)c(-c4cc(O)cc5ccccc45)c(C(F)(F)F)cc23)C[C@H]1C (atropisomer, axis not shown) [Compound 256, 1-((2R,5S)-4-(2-(3-(dimethylamino)azetidin-1-yl)-8-fluoro-7-((S)-3-hydroxynaphthalen-1-yl)-6-(trifluoromethyl)quinazolin-4-yl)-2,5-dimethylpiperazin-1-yl)prop-2-en-1-one], the Binding % is reported as “+ (+ indicates binding activity greater than 0% and up to 50%)”.
